# Measurements reported in patent publication US20250171437A1 (Agios Pharmaceuticals,Inc., priority 2022, published 2025).
# Molecular target: T1, human PAH with the R408W mutation (A375 R408W cells) (Homo sapiens, UniProt P00439, R408W)
# T1 construct: expressed in transfected cells
# T1 sequence (P00439 1-452 R408W): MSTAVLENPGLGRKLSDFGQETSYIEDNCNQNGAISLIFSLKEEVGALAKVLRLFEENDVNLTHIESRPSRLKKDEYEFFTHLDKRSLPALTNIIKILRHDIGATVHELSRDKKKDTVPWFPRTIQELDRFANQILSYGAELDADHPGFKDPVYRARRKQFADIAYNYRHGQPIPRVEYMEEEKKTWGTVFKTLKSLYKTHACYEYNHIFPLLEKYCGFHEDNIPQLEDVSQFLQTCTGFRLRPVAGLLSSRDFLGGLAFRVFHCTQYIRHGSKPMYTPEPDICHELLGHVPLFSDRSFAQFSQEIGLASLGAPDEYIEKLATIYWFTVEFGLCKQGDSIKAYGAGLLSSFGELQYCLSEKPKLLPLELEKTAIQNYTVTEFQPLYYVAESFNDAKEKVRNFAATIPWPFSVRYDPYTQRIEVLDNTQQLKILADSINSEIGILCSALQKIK
# Test: Cell Based Phenylalanine Flux Assay
# Conditions: A375 R408W cells; 24 hrs with compound, then 20 μM sepiapterin and 800 μM 13C9,15N-Phenylalanine for 4 hours; 13C-Tyrosine by LC-MS; average where tested multiple times
# Procedure, shortened: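 A375 cells stably expressing lentiviral human PAH R408W were treated with compounds (10-point 2-fold dilutions, 0.5% DMSO, duplicate) for 24 h at 37 °C. Then 20 μM sepiapterin and 800 μM 13C9,15N-Phe were added for 4 h; media 13C-Tyr was measured by LC-MS to give AC50.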
row,Compound,AC50 [µM]
1,"O=C(c1cnn2cc(N3CCC(O)CC3)ccc12)N1CCc2[nH]cnc2[C@@H]1c1nc2cc(F)cc(F)c2o1 [Example 700, (R)-(4-(5,7-difluorobenzo[d]oxazol-2-yl)-6,7-dihydro-1H-imidazo[4,5-c]pyridin-5(4H)-yl)(6-(4-hydroxypiperidin-1-yl)pyrazolo[1,5-a]pyridin-3-yl)methanone]",≥ 5
2,"Cc1ccc2oc([C@@H]3c4nc[nH]c4CCN3C(=O)c3oc(C(C)(C)O)nc3C(F)F)nc2c1 [Example 311, (S)-(4-(difluoromethyl)-2-(2-hydroxypropan-2-yl)oxazol-5-yl)(4-(5-methylbenzo[d]oxazol-2-yl)-6,7-dihydro-1H-imidazo[4,5-c]pyridin-5(4H)-yl)methanone]",≤ 0.5
3,"Cc1ccc(-c2nnc(C(=O)N3CCc4[nH]cnc4[C@H]3c3nc4cc(F)ccc4o3)o2)nc1 [Example 126, (S)-(4-(5-fluorobenzo[d]oxazol-2-yl)-6,7-dihydro-1H-imidazo[4,5-c]pyridin-5(4H)-yl)(5-(5-methylpyridin-2-yl)-1,3,4-oxadiazol-2-yl)methanone]",0.5 to 1
4,"O=C(c1cnn2cc(N3CCC4(CC3)CC4)ccc12)N1CCc2[nH]cnc2[C@H]1c1nc2c(F)cccc2o1 [Example 505, (S)-(6-(6-azaspiro[2.5]octan-6-yl)pyrazolo[1,5-a]pyridin-3-yl)(4-(4-fluorobenzo[d]oxazol-2-yl)-6,7-dihydro-1H-imidazo[4,5-c]pyridin-5(4H)-yl)methanone]",0.5 to 1
5,"CC(C)(C)c1ncc(C(=O)N2CCc3[nH]cnc3[C@@H]2c2nc3cc(F)ccc3o2)o1 [Example 22, (R)-(2-(tert-butyl)oxazol-5-yl)(4-(5-fluorobenzo[d]oxazol-2-yl)-6,7-dihydro-1H-imidazo[4,5-c]pyridin-5(4H)-yl)methanone]",1 to 5
6,"O=C(c1oc(-c2cnccn2)nc1C(F)F)N1CCc2[nH]cnc2[C@H]1c1nc2cc(F)ccc2o1 [Example 527, (S)-(4-(difluoromethyl)-2-(pyrazin-2-yl)oxazol-5-yl)(4-(5-fluorobenzo[d]oxazol-2-yl)-6,7-dihydro-1H-imidazo[4,5-c]pyridin-5(4H)-yl)methanone]",≤ 0.5
7,"Cc1ccc2c(C(=O)N3CCc4[nH]cnc4[C@H]3c3nc4c(F)cccc4o3)cnn2c1 [Example 537, (S)-(4-(4-fluorobenzo[d]oxazol-2-yl)-6,7-dihydro-1H-imidazo[4,5-c]pyridin-5(4H)-yl)(6-methylpyrazolo[1,5-a]pyridin-3-yl)methanone]",≤ 0.5
8,"COc1cccc2oc([C@H]3c4nc[nH]c4CCN3C(=O)c3ocnc3C(F)F)nc12 [Example 430, (R)-(4-(difluoromethyl)oxazol-5-yl)(4-(4-methoxybenzo[d]oxazol-2-yl)-6,7-dihydro-1H-imidazo[4,5-c]pyridin-5(4H)-yl)methanone]",0.5 to 1
9,"CC(C)(O)c1nc(Br)c(C(=O)N2CCc3[nH]cnc3[C@H]2c2nc3cc(F)ccc3o2)o1 [Example 124, (S)-(4-bromo-2-(2-hydroxypropan-2-yl)oxazol-5-yl)(4-(5-fluorobenzo[d]oxazol-2-yl)-6,7-dihydro-1H-imidazo[4,5-c]pyridin-5(4H)-yl)methanone]",0.5 to 1
10,"Cc1ccc2nc([C@H]3c4nc[nH]c4CCN3C(=O)c3nnc(-c4ncccc4F)o3)oc2c1 [Example 680, (R)-(5-(3-fluoropyridin-2-yl)-1,3,4-oxadiazol-2-yl)(4-(6-methylbenzo[d]oxazol-2-yl)-6,7-dihydro-1H-imidazo[4,5-c]pyridin-5(4H)-yl)methanone]",1 to 5
11,"Cc1nc(C(=O)N2CCc3[nH]cnc3[C@@H]2c2nc3c(C)cccc3o2)n(C)n1 [Example 820, (R)-(1,3-dimethyl-1H-1,2,4-triazol-5-yl)(4-(4-methylbenzo[d]oxazol-2-yl)-6,7-dihydro-1H-imidazo[4,5-c]pyridin-5(4H)-yl)methanone]",≥ 5
12,"O=C(c1oc(-c2ncccn2)nc1C(F)F)N1CCc2[nH]cnc2[C@H]1c1nc2cc(F)ccc2o1 [Example 661, (S)-(4-(difluoromethyl)-2-(pyrimidin-2-yl)oxazol-5-yl)(4-(5-fluorobenzo[d]oxazol-2-yl)-6,7-dihydro-1H-imidazo[4,5-c]pyridin-5(4H)-yl)methanone]",1 to 5
13,"COc1ccc(-c2nc(C(F)F)c(C(=O)N3CCc4[nH]cnc4[C@@H]3c3nc4cccc(F)c4o3)o2)nc1 [Example 615, (R)-(4-(difluoromethyl)-2-(5-methoxypyridin-2-yl)oxazol-5-yl)(4-(7-fluorobenzo[d]oxazol-2-yl)-6,7-dihydro-1H-imidazo[4,5-c]pyridin-5(4H)-yl)methanone]",≤ 0.5
14,"O=C(c1nnc(-c2ccccn2)o1)N1CCc2[nH]cnc2[C@@H]1c1nc2cccc(F)c2o1 [Example 336, (R)-(4-(7-fluorobenzo[d]oxazol-2-yl)-6,7-dihydro-1H-imidazo[4,5-c]pyridin-5(4H)-yl)(5-(pyridin-2-yl)-1,3,4-oxadiazol-2-yl)methanone]",0.5 to 1
15,"COc1cccc2nc([C@H]3c4nc[nH]c4CCN3C(=O)c3nc(C(F)(F)F)nn3C)oc12 [Example 698, (R)-(4-(7-methoxybenzo[d]oxazol-2-yl)-6,7-dihydro-1H-imidazo[4,5-c]pyridin-5(4H)-yl)(1-methyl-3-(trifluoromethyl)-1H-1,2,4-triazol-5-yl)methanone]",1 to 5
16,"Cc1nc(C(=O)N2CCc3[nH]cnc3[C@H]2c2nc3cccc(F)c3o2)n(C)n1 [Example 495, (S)-(1,3-dimethyl-1H-1,2,4-triazol-5-yl)(4-(7-fluorobenzo[d]oxazol-2-yl)-6,7-dihydro-1H-imidazo[4,5-c]pyridin-5(4H)-yl)methanone]",1 to 5
17,"Cc1ncoc1C(=O)N1CCc2[nH]cnc2[C@H]1c1nc2c(F)cccc2o1 [Example 599, (S)-(4-(4-fluorobenzo[d]oxazol-2-yl)-6,7-dihydro-1H-imidazo[4,5-c]pyridin-5(4H)-yl)(4-methyloxazol-5-yl)methanone]",≤ 0.5
18,"CC(C)(O)c1ncc(C(=O)N2CCc3[nH]cnc3[C@@H]2c2nc3c(F)cccc3o2)o1 [Example 894, (R)-(4-(4-fluorobenzo[d]oxazol-2-yl)-6,7-dihydro-1H-imidazo[4,5-c]pyridin-5(4H)-yl)(2-(2-hydroxypropan-2-yl)oxazol-5-yl)methanone]",1 to 5
19,"O=C(c1oc(C2(O)CC2)nc1C(F)F)N1CCc2[nH]cnc2[C@H]1c1nc2cc(F)ccc2o1 [Example 141, (S)-(4-(difluoromethyl)-2-(1-hydroxycyclopropyl)oxazol-5-yl)(4-(5-fluorobenzo[d]oxazol-2-yl)-6,7-dihydro-1H-imidazo[4,5-c]pyridin-5(4H)-yl)methanone]",0.5 to 1
20,"Cn1cc(C(=O)N2CCc3[nH]cnc3[C@@H]2c2nc3cc(F)ccc3o2)c(C(F)F)n1 [Example 96, (R)-(3-(difluoromethyl)-1-methyl-1H-pyrazol-4-yl)(4-(5-fluorobenzo[d]oxazol-2-yl)-6,7-dihydro-1H-imidazo[4,5-c]pyridin-5(4H)-yl)methanone]",1 to 5
21,"CC(C)(O)c1nc(Cl)c(C(=O)N2CCc3[nH]cnc3[C@H]2c2nc3cc(F)ccc3o2)o1 [Example 129, (S)-(4-chloro-2-(2-hydroxypropan-2-yl)oxazol-5-yl)(4-(5-fluorobenzo[d]oxazol-2-yl)-6,7-dihydro-1H-imidazo[4,5-c]pyridin-5(4H)-yl)methanone]",0.5 to 1
22,"Cn1nc(C(F)(F)F)nc1C(=O)N1CCc2[nH]cnc2[C@H]1c1nc2ccccc2o1 [Example 683, (S)-(4-(benzo[d]oxazol-2-yl)-6,7-dihydro-1H-imidazo[4,5-c]pyridin-5(4H)-yl)(1-methyl-3-(trifluoromethyl)-1H-1,2,4-triazol-5-yl)methanone]",1 to 5
23,"Cc1ccc2oc([C@@H]3c4nc[nH]c4CCN3C(=O)c3nnc(-c4cnn(C)c4)o3)nc2c1 [Example 111, (S)-(5-(1-methyl-1H-pyrazol-4-yl)-1,3,4-oxadiazol-2-yl)(4-(5-methylbenzo[d]oxazol-2-yl)-6,7-dihydro-1H-imidazo[4,5-c]pyridin-5(4H)-yl)methanone]",0.5 to 1
24,"(R)-(3-(difluoromethyl)-1-methyl-1H-1,2,4-triazol-5-yl)(4-(4-methylbenzo[d]oxazol-2-yl)-6,7-dihydro-1H-imidazo[4,5-c]pyridin-5(4H)-yl)methanone [Example 814]",≤ 0.5

# Same assay, conditions: A375 cells expressing R408W PAH; 24 hrs with compound, then 20 μM sepiapterin and 800 μM 13C9,15N-Phenylalanine for 4 hours; 13C-Tyrosine by LC-MS; average where tested multiple times
row,Compound,AC50 [µM]
1,O=C(c1cn(-c2ccccn2)nc1Cl)N1CCc2[nH]cnc2C1c1nc2cc(F)ccc2o1 (centres unmarked),1 to 5
2,CC(C)(O)c1ncc(C(=O)N2CCc3[nH]cnc3C2c2nc3c(F)cc(F)cc3o2)o1 (centres unmarked),1 to 5
3,CC(C)(O)c1cc(C(=O)N2CCc3[nH]cnc3C2c2nc3c(F)cccc3o2)no1 (centres unmarked),≥ 5
4,Cn1nc(C(F)(F)F)nc1C(=O)N1CCc2[nH]cnc2C1c1nc2ccc(F)cc2o1 (centres unmarked),≥ 5
5,Cn1cc(-c2nnc(C(=O)N3CCc4[nH]cnc4C3c3nc4ccc(F)cc4o3)o2)cn1 (centres unmarked),1 to 5
6,NCc1ccc2c(C(=O)N3CCc4[nH]cnc4C3c3nc4cc(F)ccc4o3)cnn2c1 (centres unmarked),≥ 5
7,O=C(c1cnn2cc(N3CCC(O)CC3)ccc12)N1CCc2[nH]cnc2C1c1nc2ccccc2o1 (centres unmarked),1 to 5
8,O=C(c1nnc(-c2cnn(C(F)F)c2)o1)N1CCc2[nH]cnc2C1c1nc2cc(C(F)(F)F)ccc2o1 (centres unmarked),≥ 5
